Experimental findings from ChEMBL document CHEMBL5154818, “Development of oxoisoaporphine derivatives with topoisomerase I inhibition and reversal of multidrug resistance in breast cancer MCF-7/ADR cells” (Eur J Med Chem, 2022) are described below.

Bounds are passed on as bounds.

Assay [1] deals with MCF7. In words: Antiproliferative activity against human MCF7 cells after 48 hrs by MTT assay. Format: functional, cell-based. To be noted: MCF7, 48 h. (Formazan colour is commonly taken as a measure of viable cells.)
The next assay concerns HepG2. The experiment in a line: Antiproliferative activity against human HepG2 cells after 48 hrs by MTT assay. Format: functional, cell-based. To be noted: HepG2, 48 h.
For a further assay, the system named is L02. The experiment in a line: Antiproliferative activity against human L02 cells after 48 hrs by MTT assay. In kind it is functional, cell-based. To be noted: L02, 48 h.
The test system of assay [2] is NCI/ADR-RES. In words: Reversal of multidrug resistant activity in human MCF7/ADR cells after 48 hrs by MTT assay. In kind it is functional, cell-based.
In a further assay the test system is MDA-MB-231. In words: Antiproliferative activity against human MDA-MB-231 cells after 48 hrs by MTT assay. To be noted: MDA-MB-231, 48 h. In kind it is functional, cell-based.
The test system of assay [3] is MCF7. In words: Antiproliferative activity against human MCF7 cells assessed as growth inhibition at 3 uM after 48 hrs by MTT assay relative to control. In kind it is functional. To be noted: read-out: GI.
Assay [4] concerns NCI/ADR-RES. The experiment in a line: Antiproliferative activity against human MCF7/ADR cells after 48 hrs by MTT assay. Format: functional, cell-based.
The next assay concerns A549. In words: Antiproliferative activity against human A549 cells after 48 hrs by MTT assay. Format: functional, cell-based. To be noted: A549, 48 h.
The test system of assay [5] is Calf thymus DNA. The experiment in a line: Binding affinity to calf thymus DNA assessed as hypochromicity at 20 uM measured by UV-vis absorption spectroscopy. In kind it is nucleic-acid assay. To be noted: Bos taurus.
Assay [6] deals with Calf thymus DNA. In words: Binding affinity to calf thymus DNA assessed as red shift in absorption spectra at 20 uM by UV-vis absorption spectroscopy. To be noted: Bos taurus. In kind it is nucleic-acid assay.

A word on the IC50: it is the concentration needed to halve the response being measured.

In the case of `O=C1c2ccccc2-c2nccc3c(OCCN4CCOCC4)ccc1c23`, the IC50 in the assay on MCF7 [1] is 6.01 µM; in the assay with HepG2, 8.07 µM; in the assay on L02 it was > 50 µM; with NCI/ADR-RES [2] it was 10.1 µM; in the assay on MDA-MB-231 it was 8.48 µM; in the assay with NCI/ADR-RES [4], 11.2 µM. In the assay on A549, this compound came in with an IC50 of 6.37 µM. Further, in the assay on MCF7 [3], the inhibition of growth at 3 µM stood at 8.33%.

With `CC1CCCCN1CCCOc1ccc2c3c(nccc13)-c1ccccc1C2=O` (stereo not drawn), the IC50 worked out at 8.32 µM with MCF7 [1]; 6.56 µM with HepG2; 19.5 µM in the assay on L02; 0.39 µM in the assay with NCI/ADR-RES [2]; 7.94 µM in the assay on MDA-MB-231; 16.2 µM in the assay with NCI/ADR-RES [4]. The compound further registered an IC50 with A549 of 7.48 µM. Further, the inhibition of growth at 3 µM in the assay with MCF7 [3] worked out at 19.7%. Also, in the assay with Calf thymus DNA [5], the Activity is 28.5%. For the same compound, the OD with Calf thymus DNA [6] amounted to 2 nm.

For `O=C1c2ccccc2-c2nccc3c(OCCCCn4cnc([N+](=O)[O-])c4)ccc1c23`, the IC50 is 9.34 µM in the assay with MCF7 [1]; 14.3 µM with HepG2; > 50 µM in the assay with L02; 11.4 µM in the assay on MDA-MB-231; 18.3 µM in the assay with NCI/ADR-RES [4]; 12.2 µM with A549.

With `CN1CCN(CCOc2ccc3c4c(nccc24)-c2ccccc2C3=O)CC1`, the IC50 in the assay on MCF7 [1] came out at 6.01 µM; in the assay on HepG2, 8.19 µM; with L02, 22.4 µM; in the assay on NCI/ADR-RES [2], 2.9 µM; with MDA-MB-231, 9.33 µM; in the assay on NCI/ADR-RES [4], 13.2 µM. For the same compound, in the assay on A549, the IC50 is 7.26 µM. For the same compound, the inhibition of growth at 3 µM in the assay on MCF7 [3] was 9.48%.

Take `O=C1c2ccccc2-c2nccc3c(OCCCCCn4ccnc4[N+](=O)[O-])ccc1c23`: the IC50 was 9.29 µM in the assay on MCF7 [1]; 8.13 µM in the assay on HepG2; 30.2 µM in the assay with L02; 7.18 µM in the assay on MDA-MB-231; 10.2 µM with NCI/ADR-RES [4]; 6.09 µM in the assay on A549.

Regarding `CN1CCN(CCCOc2ccc3c4c(nccc24)-c2ccccc2C3=O)CC1`, the IC50 with MCF7 [1] was determined as 7.46 µM; in the assay with HepG2, 9.67 µM; in the assay on L02, 25.9 µM; in the assay with NCI/ADR-RES [2], 11.4 µM; in the assay on MDA-MB-231, 10.5 µM; in the assay with NCI/ADR-RES [4], 18.3 µM. In the assay with A549, this compound gave an IC50 of 10 µM. In addition, in the assay on MCF7 [3], the inhibition of growth at 3 µM amounted to 8.89%.

On to `O=C1c2ccccc2-c2nccc3cccc1c23`, for which the IC50 was 24 µM in the assay with MCF7 [1]; 28.2 µM in the assay with HepG2; > 50 µM in the assay with L02; 32.2 µM with MDA-MB-231; 40.9 µM with NCI/ADR-RES [4]; 26.2 µM with A549.

The compound `COc1cccc2c1C(=O)c1c(O)c3c(c(O)c1C2=O)C[C@@](O)(C(=O)CO)C[C@@H]3O[C@H]1C[C@H](N)[C@H](O)[C@H](C)O1` [DOXORUBICIN] showed an IC50 with L02 of 0.18 µM.

As for `O=C1c2ccccc2-c2nccc3c(OCCCn4ccnc4[N+](=O)[O-])ccc1c23`, the IC50 worked out at 10.1 µM in the assay with MCF7 [1]; 13.1 µM in the assay with HepG2; 39.6 µM with L02; 12 µM in the assay with MDA-MB-231; 16.7 µM in the assay with NCI/ADR-RES [4]; 10.3 µM in the assay on A549.

In the case of `O=C1c2ccccc2-c2nccc3c(OCCCN4CCOCC4)ccc1c23`, the IC50 in the assay with MCF7 [1] was determined as 7.58 µM; with HepG2, 10.3 µM; in the assay on L02, 32.4 µM; in the assay with NCI/ADR-RES [2] it was 1.81 µM; with MDA-MB-231, 9.52 µM; in the assay on NCI/ADR-RES [4] it was 14.6 µM. This compound gave an IC50 in the assay on A549 of 9.23 µM. In the assay with MCF7 [3], the inhibition of growth at 3 µM came to 3.73%.

Turning to `O=C1c2ccccc2-c2nccc3c(OCCCCn4cnc(Br)c4)ccc1c23`, the IC50 with MCF7 [1] amounted to 7.95 µM; with HepG2, 7.46 µM; in the assay on L02, 32.3 µM; in the assay on MDA-MB-231, 10.2 µM; in the assay on NCI/ADR-RES [4], 12.1 µM; in the assay on A549, 8.53 µM.

`Cc1cn(CCCCOc2ccc3c4c(nccc24)-c2ccccc2C3=O)cn1`: the 50% inhibitory concentration (IC50) was 9.42 µM with MCF7 [1]; 11.1 µM with HepG2; 28.2 µM in the assay on L02; 9.47 µM with MDA-MB-231; 13.6 µM in the assay on NCI/ADR-RES [4]; 9.63 µM in the assay on A549.

In the case of `N#Cc1ncn(CCCCOc2ccc3c4c(nccc24)-c2ccccc2C3=O)c1C#N`, the IC50 with MCF7 [1] came to 10.2 µM; with HepG2 it was 8.42 µM; with L02, 26.8 µM; in the assay on MDA-MB-231 it was 7.34 µM; with NCI/ADR-RES [4], 10.1 µM; in the assay on A549 it was 6.17 µM.

As to `O=C1c2ccccc2-c2nccc3c(OCCCn4cnc(Br)c4)ccc1c23`, the IC50 amounted to 6.09 µM in the assay with MCF7 [1]; 8.12 µM in the assay with HepG2; 36.8 µM in the assay on L02; 8.61 µM in the assay on MDA-MB-231; 11.2 µM with NCI/ADR-RES [4]; 8.95 µM in the assay with A549.

With `O=C1c2ccccc2-c2nccc3c(OCCCCn4ccnc4[N+](=O)[O-])ccc1c23`, the IC50 in the assay with MCF7 [1] amounted to 9.78 µM; in the assay on HepG2, 10.9 µM; in the assay on L02 it was 37.3 µM; with MDA-MB-231, 10 µM; with NCI/ADR-RES [4], 13.5 µM; with A549, 10.6 µM.

With `O=C1c2ccccc2-c2nccc3c(OCCCCCn4cnc([N+](=O)[O-])c4)ccc1c23`, the half-inhibitory concentration (IC50) in the assay on MCF7 [1] came to 10 µM; in the assay on HepG2, 8.67 µM; with L02, 23.8 µM; in the assay on MDA-MB-231, 8.29 µM; with NCI/ADR-RES [4] it was 11.5 µM; in the assay with A549 it was 7.36 µM.

As for `CC1CCCCN1CCCCOc1ccc2c3c(nccc13)-c1ccccc1C2=O` (stereo not drawn), the IC50 turned out to be 9.95 µM in the assay on MCF7 [1]; 10.1 µM in the assay with HepG2; 28.4 µM with L02; 1.82 µM in the assay on NCI/ADR-RES [2]; 8.46 µM in the assay on MDA-MB-231; 15.2 µM in the assay on NCI/ADR-RES [4]. The compound also returned an IC50 with A549 of 8.46 µM. In addition, the inhibition of growth at 3 µM in the assay on MCF7 [3] was 3.7%. Besides, in the assay with Calf thymus DNA [5], the Activity worked out at 22%. Moreover, in the assay with Calf thymus DNA [6], the OD is 1.6 nm.

For `Cc1cn(CCCOc2ccc3c4c(nccc24)-c2ccccc2C3=O)cn1`, the IC50 in the assay on MCF7 [1] came out at 9.35 µM; with HepG2, 12 µM; in the assay with L02, 23.8 µM; with MDA-MB-231, 12.1 µM; in the assay on NCI/ADR-RES [4] it was 17.1 µM; in the assay with A549, 11.2 µM.

For the compound `O=C1c2ccccc2-c2nccc3c(OCCCn4cnc([N+](=O)[O-])c4)ccc1c23`, the IC50 with MCF7 [1] stood at 9.03 µM; in the assay on HepG2 it was 10.5 µM; in the assay on L02, 21.1 µM; with MDA-MB-231, 8.29 µM; in the assay with NCI/ADR-RES [4], 18.4 µM; in the assay on A549 it was 9.73 µM.

As for `O=C1c2ccccc2-c2nccc3c(OCCCCN4CCOCC4)ccc1c23`, the IC50 was determined as 8.46 µM in the assay with MCF7 [1]; 10.3 µM in the assay on HepG2; 22.9 µM in the assay on L02; 6.12 µM in the assay on NCI/ADR-RES [2]; 9.43 µM with MDA-MB-231; 19.3 µM with NCI/ADR-RES [4]. Besides, the IC50 in the assay with A549 was 9.63 µM. Moreover, in the assay on MCF7 [3], the inhibition of growth at 3 µM was 17.4%.

For the compound `COc1ccc(CCN(C)CCCC(C#N)(c2ccc(OC)c(OC)c2)C(C)C)cc1OC` (stereo not drawn), the IC50 in the assay on NCI/ADR-RES [2] was 2.83 µM.

Turning to `CN1CCN(CCCCOc2ccc3c4c(nccc24)-c2ccccc2C3=O)CC1`, the IC50 was 8.67 µM with MCF7 [1]; 11.9 µM in the assay on HepG2; > 50 µM with L02; 1.8 µM in the assay on NCI/ADR-RES [2]; 11.1 µM in the assay with MDA-MB-231; 13.2 µM with NCI/ADR-RES [4]. 11.1 µM corresponded to half-maximal inhibition in the assay on A549 (IC50). Moreover, the inhibition of growth at 3 µM with MCF7 [3] came to 6.68%.

`N#Cc1ncn(CCCCCOc2ccc3c4c(nccc24)-c2ccccc2C3=O)c1C#N`: the IC50 in the assay on MCF7 [1] was found to be 7.65 µM; with HepG2 it was 7.29 µM; in the assay on L02, 31.1 µM; with MDA-MB-231, 7.39 µM; in the assay with NCI/ADR-RES [4], 10.1 µM; in the assay with A549, 5.88 µM.
